From US20020086027A1, “Composition and method for enhancing immunological memory response” (priority 1998, published 2002)
“Also recorded” adds a separate entry of the source.

How the values were obtained:
[1] = system: antigen-specific T cell memory; experiment: Mice immunized with ovalbumin without adjuvant, splenic T cell recall proliferation; assay type: in vivo; details: POX 1 mg per mouse per day, day -1 to day 5
Procedure: Splenic cells were stimulated in vitro either on day 7 or on day 60 after immunization with titrated doses of ovalbumin for 4 days and pulsed with 3H-thymidine for 16 h before being harvested for scintillation spectrometry In the second system used to validate the memory-enhancing effects of POX, we have used immunization with a very poor immunogen, egg albumin without adjuvant.

human T cells [2] = experiment: Primary alloproliferative response of responder PBMCs to irradiated MHC-mismatched stimulator PBMCs ([3H]thymidine incorporation); assay type: cell-based
Procedure: In this system, we have used responses to first exposure as an indication of primary responses. When cells stimulated in this fashion are rested in culture and then restimulated with the same stimulator PBMCs, the 'recall' response measured are taken as an indication of immune memory. Proliferation is measured by the incorporation of radioactive tritiated thymidine in dividing cells. PBMCs from HLA-mismatched individuals were separated using density-gradient centrifugation on Ficoll-Paque (Pharmacia, Uppsala, Sweden). Stimulator PBMCs were used in titrated doses after g-irradiation (200 rads). For the primary proliferative alloresponses, stimulator in graded doses were used with 1-3×10^5 responders per well in 200 μl of RPMI-1640 (Life Technologies, Grand Island, N.Y.) fortified with L-glutamine (Life Technologies) and antibiotics, containing 10% heat-inactivated responder autologous serum. Cultures were incubated in a CO2 atmosphere for five days, pulsed with 0.5 uCi of (H^3)-thymidine (New England Nuclear, Boston, Mass.) for the last 8-12 hours of the assay and harvested onto glass fiber filters for counting cell-incorporated thymidine (Betaplate; Wallac, Finland). results are expressed as mean cpm±SE for triplicate cultures. Dibutyryl cyclic AMP (dbcAMP), pentoxifylline (POX), aphidicolin (all from Sigma Chemical Co., St Louis, Mo.) and recombinant IL-2 (Boehringer Manheim Corp., Manheim Germany) were added singly or together to the culture in various doses as indicated during priming and in primary alloresponse assays. […] Sigma Chemical Co.) at room temperature for 20 minutes, washed extensively and used. PBMCs from MHC-mismatched donors were used as responder-stimulator pairs. Stimulator cells were used after γ-irradiation (200 rad) at various concentrations, as shown. Proliferation assays were set up as parallel cultures and were pulsed and harvested as below on different days when necessary for the analyses of the kinetics of the response. Where appropriate, cyclosporin A (CsA, Sandoz, Milan, Italy), aphidicolin (Aph, Sigma Chemical Co., and/or pentoxifylline ([…], Sigma Chemical Co.) Were added at the concentrations indicated, or PFA-fixed PBMCs were used. The plated were pulsed with 0.5 to 1 μCi of (^3H)thymidine ([^3H]TdR. Amersham, Little Chalfont, U.K.) During the last 12 to 16 h of the assay (4 days for a recall assay and 6 days for a primary assay, unless indicated otherwise). [^3H] TdR incorporation was measured by harvesting the cultures on glass-fibers and counting in a scintillation counter (Betaplate: LKB-Pharmacia. Uppsala, […]). The results are expressed as mean cpm±SE of triplicate cultures.

human T cells [3] = experiment: Cytokines in culture (IL-2 in supernatants, IFN-γ during recall); assay type: cell-based
Text: Such possibilities make it plausible that signal-transduction pathways can be identified that differentially affect the commitment of responding T cells to the effector vs the memory pathways. […] It was of interest to look at the role of IL-2 in these events. […] Yet, the recall responses of cells primed under cover of […] are far higher than those of cells primed without […]). In fact, if […] is used in a situation in which T cell proliferation is abrogated by Aph it still enhances the response capability of primed T cells (FIG. 9). […] The enhancement in the magnitude of the secondary response caused by the presence of […] during priming is not simply the result of altered kinetics or response either (FIG. 11), but an actual increase. Clearly […] affects T cell priming such that commitment to memory is enhanced at the cost of effector responses, independent of its on T cell proliferation. […] (data not shown).

[4] = system: allo-specific precursor T cells; experiment: Limiting dilution analysis of clonal responder frequency and burst size; assay type: cell-based, human
Text: Limiting dilution analyses were used to calculate the number of transplantation antigen-specific memory T cells in cultures primed in the presence or absence of POX. Multiple replicate wells of titrated numbers of primed responders were restimulated. the numbers of wells showing proliferative responses at each responder dose were used to calculate the frequency of responding memory t cells in the primed populations. estimates of the extent of proliferation in wells effectively containing single responder cells served as a measure of clonal burst size. […] To determine the frequence of all-specific precursor cells in the various responder populations, titrating numbers (from 10,000 to 200 per well) of variously primed cells were added to a constant number (1×10^5 per well) of g-irradiated stimulator PBMCs. Of the 48 wells plated per responder dose, those wells showing a response at least twice that of the background value were scored positive. The responder frequency was calculated by taking the number of negative wells into account. The response was considered clonal at the responder cell number where the proportion of positively responding wells was less than 37%. At responder cell concentrations showing clonal frequencies, the average cpm values of responding (versus non-responding) wells were used as an estimate of the average clonal burst size of single responding T cells.

[5] = system: mercuric chloride-induced arthritis; details: rats; cited from earlier work
T cell lines = experiment: Intracellular cAMP levels in T cell lines; assay type: cell-based; details: preliminary experiments
Text: Several effects of POX on T cell signaling pathways have been reported. […] A major consequence of inhibition of phosphodiesterase is an increase in the levels of intracellular cAMP. […] This raises the possibility that although dbcAMP mimics POX in its effects on T cell priming, the precise molecular pathways involved may differ.

CC(=O)CCCCn1c(=O)c2c(ncn2C)n(C)c1=O [POX, pentoxifylline]
T cell memory recalled ([1]; day 7 post-immunization): higher | T cell memory recalled ([1]; day 60 post-immunization): dramatically high | primary proliferative response (human T cells [2]; Trental 100 ug/ml added to cells on 1 μg/ml Aph): further decreases | kinetics of primary response (human T cells [2]; days 4-10, drugs present throughout): declines equivalently | primary proliferative response (human T cells [2]; drug 100 ug/ml present during primary alloresponse): declines | primary proliferative response (human T cells [2]; drug 100 ug/ml present during primary alloresponse, listed as Trental): reduced significantly | primary response after drug removal (human T cells [2]; drugs removed on day 6, pulsed days 8 and 10): no increase | primary proliferative response (human T cells [2]; increasing doses 1-300 μg/ml, preliminary titrations): decrease | primary response to PF-fixed PBMCs (human T cells [2]; stimulators fixed with 0.05% PF, POX 100 ug/ml): not enhanced | IL-2 in culture supernatants (human T cells [3]; Trental 100 μg/ml treated cultures): do not find detectable levels | levels of IFN-γ produced during recall (human T cells [3]; primed in presence vs absence of Trental): not different | frequency of alloreactive responder (memory) T cells ([4]; drug present during priming (POX 100 ug/ml)): enhanced; also recorded: significantly enhances | clonal burst size (average clonal proliferative response) ([4]; drug-treated vs untreated during priming): without altering; also recorded: not significantly different | protection against arthritis [5]: significant protection | intracellular cAMP levels (T cell lines): does not increase
